Assay results taken from patent publication US20080003632A1, “Method for the In Vitro Determination of Cellular Uptake of Exogenous and Endogenous Substances Using Nmr Shift Agents and the Magic Angle Nmr Technique” (Bracco Imaging SpA, priority 2004, published 2008).

Tested on: HRBC (Human Red Blood Cells)
Test: Cellular uptake of acetylsalicylic acid in red blood cells by 1H HR-MAS NMR with shift agent Dy-BOPTA
Type: in vitro ADME
Text: Determination of Cellular Uptake of Acetylsalicylic Acid in Red Blood Cells
In this example, EXO=Acetylsalicylic acid; SA=Dy-BOPTA (Dy is the symbol of Dysprosium, one of the lanthanides known as shift agent).
The nucleus used to determine Acetylsalicylic acid cellular uptake is the proton.
The in vitro determination has been preformed on HRBC obtained by human blood treated as described below.
Centrifugation: the employed centrifuge was HERAEUS SEPATECH OMNIFUGE 2 ORS, rotor model 3360. Centrifugation was done at 2109 g (equivalent to 3500 rpm) at 4° C. for 15 minutes.
Living HRBC preparation: human blood (to which sodium citrate has been added as an anticoagulant) was centrifuged. After that, HRBC pellets were separated from serum and white cell interface, carefully obtaining a solution of red cells free of white cells; accordingly, red cells with 80% hematocrit were obtained.
Dy-BOPTA stock solution: a 0.1 M stock solution of Dy-BOPTA was used in all of the measurement to obtain the suitable [SA].
Acetylsalicylic acid stock solution: a 1 M stock solution of ASA containing 0.1 M of DSS (as internal standard for quantitative determination), was used in all of the measurements.
The solution was prepared by dissolving 180.16 mg of ASA and 23.63 mg of DSS in 200 ul of H2O, adding NaOH 2N until dissolution, lowering, if necessary, the pH to 7 with HCl 1N, then filling the volume to 1 ml. In this way two forms of ASA are generated that are below indicated as A and B.
Acetylsalicylic acid in HRBC: a sample containing 1 ml of HRBC (80% hematocrit), 100 μmoles of acetylsalicylic acid (i.e. 100 μl of acetylsalicylic acid stock solution) and 8 μmoles of Dy-BOPTA (i.e. 80 μl of Dy-BOPTA stock solution) was employed to measure the uptake of acetylsalicylic acid in HRBC.
Proton ^1H NMR spectra: all the ^1H NMR spectra have been acquired on a Bruker AMX 600 SB spectrometer at the frequency of 600.13 MHz. A multinuclear HR-MAS probehead with double bearing and 4 mm rotor with 12 μl spherical insert have been employed. Experimental conditions were: sample rotating speed=3500 Hz; spectra width=12,000 Hz (c.a. 20 ppm); time domain data points=128 K; number of scans=16; pulse length=11.7 μs; recycle delay=10 s; CPMG sequence; Fourier Transform by 0.5 Hz of enhancement multiplication function, sample temperature=25° C.
Proton spectra have been employed to determine acetylsalicylic acid cellular uptake, because ^1H is the sole nucleus present in acetylsalicylic acid having a high NMR sensitivity. […] Both of the two signals are marker^EXO signals.
The measurement of cellular uptake of acetylsalicylic acid by HRBC was calculated from the spectra reported in the enclosed FIG. 7.
Firstly, the ^1H NMR-MAS spectrum of HRBC was acquired (FIG. 7—trace a) in the absence of either acetylsalicylic acid (EXO) or of Dy-BOPTA (SA).
Then, 100 μl of acetylsalicylic acid 1M stock solution were added and the spectrum repeated (FIG. 7—trace b). In spectrum of trace b the two components for each signal A and B of the methyl group of acetylsalicylic acid were well visible, i.e. four peaks exist in the proton MAS-NMR spectrum. The splitting of signals A and B induces to suppose that the molecules of acetylsalicylic acid in the extra- and intra-cellular compartments are in magnetically different environments, i.e. the four observed signals corresponded to signals A e B into intra- and extra-cellular compartments, respectively.
Lastly, 80 μl of Dy-BOPTA stock solution were also added to the sample and the spectrum were again re-acquired (FIG. 7—trace c). […] Two components resulted unshifted with respect to the original marker^EXO signals while the other two components were shifted.
Acetylsalicylic acid corresponding to the unshifted marker^EXO signals is ACETYLSALICYLIC ACIDCC≠SA, i.e. acetylsalicylic acid in the intra-cellular compartment. […]

% of cellular uptake of acetylsalicylic acid A (form A, HRBC): 3.04%
concentration of acetylsalicylic acid o (A) (form A, extracellular fluid volume 0.38 ml): 154100 µM
μmoles acetylsalicylic acid o (A), amount in extra-cellular compartment (form A, extracellular, 1 ml HRBC 80% hematocrit, 100 μmoles ASA added, 8 μmoles Dy-BOPTA, 25° C.): 58.56 µmol
concentration of acetylsalicylic acid i (A) (form A, intracellular fluid volume 0.8 ml): 4830 µM
μmoles acetylsalicylic acid i (A), amount in intra-cellular compartment (form A, intracellular, 1 ml HRBC 80% hematocrit, 100 μmoles ASA added, 8 μmoles Dy-BOPTA, 25° C.): 3.87 µmol
[acetylsalicylic acid]o/[acetylsalicylic acid]i (A) (form A, ratio of extra- to intra-cellular concentration): 31.90
% of cellular uptake of acetylsalicylic acid B (form B, HRBC): 10.40%
concentration of acetylsalicylic acid o (B) (form B, extracellular fluid volume 0.38 ml): 79440 µM
μmoles acetylsalicylic acid o (B), amount in extra-cellular compartment (form B, extracellular, 1 ml HRBC 80% hematocrit, 100 μmoles ASA added, 8 μmoles Dy-BOPTA, 25° C.): 30.19 µmol
concentration of acetylsalicylic acid i (B) (form B, intracellular fluid volume 0.8 ml): 9220 µM
μmoles acetylsalicylic acid i (B), amount in intra-cellular compartment (form B, intracellular, 1 ml HRBC 80% hematocrit, 100 μmoles ASA added, 8 μmoles Dy-BOPTA, 25° C.): 7.38 µmol
[acetylsalicylic acid]o/[acetylsalicylic acid]i (B) (form B, ratio 79.44/9.22 of extra- to intra-cellular concentration): 8.61
% of cellular uptake of total acetylsalicylic acid (forms A + B, HRBC): 5.67%
Structure (SMILES): CC(=O)Oc1ccccc1C(=O)O [acetylsalicylic acid]
